The values below come from US9340577B2, “HLA binding motifs and peptides and their uses” (priority 1992, dated 2016).

No end group written: not given here. A value given as a limit tells only on which side of the number the result lay.

Holding throughout (assay): biochemical
One assay deals with A*3002 (Homo sapiens, UniProt P04439, D101N/D140H/D185E/E176R/F33S/G80R/H175R/K168Q/Q94H/R138E/R41S/V100E). The format is binding.
Another assay addresses HLA-A1 (A*0101) (Homo sapiens, UniProt P04439, A114D/A174V/A182V/D101N/D185E/E176A/E190D/L180R/Q94H/R68K/S129P/T187R/V100A/V91M/W191G). The class given is binding.
The next assay has as its target A*2902 (Homo sapiens, UniProt P04439, A270S/D101N/D185E/E176V/E277Q/E87Q/F33T/G231S/H175R/I121M/I218V/I322F/K168Q/L300P/L318F/M331R/P208A/P217A/Q86L/T323A/T345S/V100A/V358M). The class given is binding.
The target of another assay is DR4w4 (DRB1*0401) (Homo sapiens, UniProt P01903+P01911, A100K/A169T/F76Y/I96L/K127E/L162R/M171V/N62H/P40V/Q125Y/R42H/S133A/S149N/S66Y/V115G/V209L/W38E). The format is binding.
For the next assay, the target named is DRB4*0101 (Homo sapiens, UniProt P01903+P13762, G164S). The class given is binding.
Another assay deals with DRB1*0405 (Homo sapiens, UniProt P01903+P01911, A100R/A169T/D86S/F76Y/I96L/K127E/L162R/M171V/N62H/P40V/Q125Y/R42H/S133A/S149N/S66Y/V115G/V209L/W38E). The format is binding.
The next assay concerns the target DRB3*0101 (Homo sapiens, UniProt P01903+P79483). The format is binding.
The next assay has as its target DR7 (DRB1*0701) (Homo sapiens, UniProt P01903+P01911, A100R/A102G/A103Q/D57E/D86V/E43K/F76Y/K127E/L162R/M171V/P40G/Q125H/Q99D/R33Q/R42Y/R54Q/S133A/S66F/T210M/V115G/Y107V/Y59L/Y89S). The class given is binding.
In another assay the target is DRB1*0301 (Homo sapiens, UniProt P01903+P01911, A100K/A102G/A103R/A169T/F55Y/I96L/K41T/L162R/M171V/P40S/Q125H/Q178H/Q39Y/R42S/S66N/T106N/T262R/W38E/Y61H). The format is binding.
DRB1*0301, sequence (P01903 26-254 limits assumed, other chains not shown): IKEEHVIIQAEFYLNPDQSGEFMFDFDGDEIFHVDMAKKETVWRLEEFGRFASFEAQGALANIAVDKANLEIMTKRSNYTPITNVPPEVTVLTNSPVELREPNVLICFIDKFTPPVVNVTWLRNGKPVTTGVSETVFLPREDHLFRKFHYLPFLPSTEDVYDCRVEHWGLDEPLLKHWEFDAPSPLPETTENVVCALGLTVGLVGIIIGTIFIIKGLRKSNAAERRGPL
Another assay has as its target DRB1*1302 (Homo sapiens, UniProt P01903+P01911, A100E/A169T/K41T/L162R/M171V/P40S/Q125H/Q178H/Q39Y/Q99D/R42S/S66N/T262R/V115G/W38E/Y61H). The format is binding.
A further assay deals with DRB5*0101 (Homo sapiens, UniProt P01903+Q30154). Conditions: Binding affinity DRB5 *0101.
A further assay has as its target DRB1*1201 (Homo sapiens, UniProt P01903+P01911, A100R/A169T/D57E/D86V/F55L/H45Y/K41T/L162R/M171V/P40S/Q125H/Q178H/Q39Y/Q99D/R42G/S66L/T262R/V114A/V67L/W38E/Y59H/Y61H/Y89S). The format is binding.
The target of the next assay is DR1 (DRB1*0101) (Homo sapiens, UniProt P01903+P01911, A100R/D57E/F55L/F60I/F76Y/I96L/L162R/M171V/P40L/Q125E/R42F/V115G/Y59C). The class given is binding.
A further assay concerns the target DRB1*0901 (Homo sapiens, UniProt P01903+P01911, A100R/A103E/D57H/D86V/F55Y/F60I/F76Y/I96F/K127E/L162R/M171V/P40D/Q125H/Q99R/R33Q/R42F/S133A/S66N/T210M/V115G/W38K/Y107V/Y59G/Y89S). The format is binding.
The next assay addresses DRB1*1501 (Homo sapiens, UniProt P01903+P01911). The class given is binding.
A further assay concerns the target DRB1*0802 (Homo sapiens, UniProt P01903+P01911, A100R/A103L/A169T/F76Y/H45Y/I96F/K41T/L162R/M171V/P40S/Q125H/Q178H/Q39Y/Q99D/R218S/R42G/S66Y/V115G/W38E). The class given is binding.
The target of the next assay is DRB1*1101 (Homo sapiens, UniProt P01903+P01911, A100R/A169T/A87E/I96F/K41T/L162R/M171V/P40S/Q125H/Q178H/Q39Y/Q99D/R42S/S66Y/T262R/V115G/W38E). The following applies: Binding affinity DRB1 *1101.
DRB1*1101, sequence (P01903 26-254 limits assumed, other chains not shown): as above

DRB1*1302, sequence (P01903 26-254 limits assumed, other chains not shown): as above
A*3002, sequence (P04439 whole entry, looked up, the tested form may be a part, stated change not applied): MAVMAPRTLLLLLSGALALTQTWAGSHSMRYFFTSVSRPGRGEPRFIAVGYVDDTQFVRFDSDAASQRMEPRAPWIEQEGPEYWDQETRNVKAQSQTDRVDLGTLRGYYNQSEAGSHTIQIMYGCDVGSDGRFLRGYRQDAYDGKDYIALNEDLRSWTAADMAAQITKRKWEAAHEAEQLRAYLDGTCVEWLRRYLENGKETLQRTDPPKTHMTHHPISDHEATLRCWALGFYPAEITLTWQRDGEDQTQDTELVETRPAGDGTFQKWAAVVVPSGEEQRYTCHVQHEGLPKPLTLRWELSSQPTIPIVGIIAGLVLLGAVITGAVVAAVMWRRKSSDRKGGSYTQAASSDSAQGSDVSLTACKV

The IC50 is the concentration needed to halve the response being measured. Low readings indicate greater potency, high ones weaker potency. Regarding IVNRVRQGY [Peptide 1595.07], the IC50 on A*3002 turned out to be 6.3 nM; at HLA-A1 (A*0101), 19800 nM; at A*2902, 2030 nM.
For the sequence ITKIQNFRVY [Peptide 9015.0173], the IC50 at HLA-A1 (A*0101) came to 9470 nM; at A*2902, 1800 nM.
WFDITKWLWY [Peptide 9015.0160] came in with an IC50 at A*3002 of 3390 nM.
As to CIHSTATDLRTLQQM [Peptide 1543.45], the IC50 at DR4w4 (DRB1*0401) is 14 nM; against DRB4*0101, 159 nM; against DRB1*0405 it was 370 nM; on DRB3*0101 it was more than 20000 nM; against DR7 (DRB1*0701), 459 nM; on DRB1*0301, 213 nM. Further, the IC50 against DRB1*1302 is 2990 nM; at DRB5*0101, 2450 nM; against DRB1*1201, 4510 nM; at DR1 (DRB1*0101) it was 448 nM; against DRB1*0901, 19000 nM; on DRB1*1501, 15000 nM. Also, the IC50 on DRB1*0802 is 493 nM.
LADQLIHMHY [Peptide 9015.0186]: the values for the IC50 against A*3002, at HLA-A1 (A*0101) and against A*2902 were 817 nM, 8.1 nM and 3070 nM, respectively.
As to LYCYEQLSDSSDEDE [Peptide 1543.13], the IC50 against DR4w4 (DRB1*0401) was 1120 nM; against DRB4*0101 it was 12700 nM; on DRB1*0405, 89 nM; against DRB3*0101, more than 20000 nM; on DR7 (DRB1*0701), 9770 nM; on DRB1*0301 it was more than 20000 nM. Besides, the IC50 against DRB1*1302 is more than 20000 nM; at DRB5*0101 it was more than 20000 nM; against DRB1*1201 it was more than 20000 nM; at DR1 (DRB1*0101), 5690 nM; at DRB1*1101, 3380 nM; on DRB1*0901, more than 20000 nM. Further, the IC50 at DRB1*1501 and at DRB1*0802 was more than 20000 nM in each case.
Regarding NSNTKATLLY [Peptide 1580.16], the IC50 at A*3002 amounted to 470 nM; against A*2902, 299 nM.
TELNTSLQDIEITCV [Peptide 1543.34]: the IC50 against DR4w4 (DRB1*0401) was more than 20000 nM; against DRB4*0101, 922 nM; against DRB1*0405 it was more than 20000 nM; on DRB3*0101, more than 20000 nM; against DR7 (DRB1*0701) it was more than 20000 nM; on DRB1*0301 it was more than 20000 nM. The IC50 was 7070 nM against DRB1*1302; more than 20000 nM on DRB5*0101; more than 20000 nM on DRB1*1201; more than 20000 nM at DR1 (DRB1*0101); more than 20000 nM on DRB1*1101; more than 20000 nM at DRB1*0901. Also, the IC50 on DRB1*1501 is more than 20000 nM; against DRB1*0802, 5520 nM.
Turning to WFSITNWLWY [Peptide 9015.0159], on A*2902, the IC50 is 30 nM.
Consider DGVSHAQLPARRAEP [Peptide 1543.18], for which the IC50 against DR4w4 (DRB1*0401) was more than 20000 nM; against DRB4*0101, 1930 nM; against DRB1*0405, more than 20000 nM; on DRB3*0101, more than 20000 nM; on DR7 (DRB1*0701), more than 20000 nM; on DRB1*0301, 2480 nM. In addition, the IC50 against DRB1*1302 was more than 20000 nM; at DRB5*0101, 392 nM; against DRB1*1201, more than 20000 nM; at DRB1*1101 it was more than 20000 nM; against DRB1*0901, more than 20000 nM; at DRB1*1501, more than 20000 nM. In addition, the IC50 on DRB1*0802 was more than 20000 nM.
As for GCWRQTSREPRESTV [Peptide 1543.46], the IC50 on DR4w4 (DRB1*0401) is 1840 nM; against DRB4*0101, more than 20000 nM; on DRB1*0405 it was 2300 nM; on DRB3*0101, more than 20000 nM; against DR7 (DRB1*0701) it was 72 nM; against DRB1*0301 it was 902 nM. Also, the IC50 is more than 20000 nM on DRB1*1302; 4270 nM on DRB5*0101; more than 20000 nM on DRB1*1201; 2640 nM against DR1 (DRB1*0101); 144 nM at DRB1*1101; 3200 nM at DRB1*0901. In addition, the IC50 was more than 20000 nM on DRB1*1501 and 356 nM on DRB1*0802.
In the case of CSMSYTWTGA [Peptide 1489.14], the IC50 against HLA-A1 (A*0101) and on A*2902 was more than 20000 nM in each case.
Regarding LTDQLIHMHY [Peptide 9018.0032], the figures for the IC50 on A*3002 and against HLA-A1 (A*0101) were 350 nM and 6.6 nM, respectively.
As to QERPRKLPQLCTELQ [Peptide 1543.22], the IC50 is 5120 nM on DR4w4 (DRB1*0401); 81 nM against DRB4*0101; more than 20000 nM at DRB1*0405; more than 20000 nM against DRB3*0101; more than 20000 nM against DR7 (DRB1*0701); more than 20000 nM against DRB1*0301. The IC50 against DRB1*1302 is more than 20000 nM; at DRB5*0101, more than 20000 nM; at DRB1*1201 it was 11700 nM; on DR1 (DRB1*0101), more than 20000 nM; at DRB1*1101, more than 20000 nM; at DRB1*0901 it was more than 20000 nM. In addition, the IC50 on DRB1*1501 and against DRB1*0802 was more than 20000 nM throughout.
For LYDQLIHMHY [Peptide 9018.0034], the IC50 on A*3002 stood at 55 nM; against A*2902, 123 nM.
Taken in the same sequence, the figures for VTFDPIPIHY [Peptide 9015.0153] were 380 nM and 619 nM.
For SSSKVSQNY [Peptide 9015.0011], the IC50 is 32 nM against A*3002 and 1760 nM at A*2902.
With YRHYQYSLYGKTLEE [Peptide 1543.58], the IC50 against DR4w4 (DRB1*0401) is 4.1 nM; against DRB4*0101, 2540 nM; at DRB1*0405, 25 nM; against DRB3*0101, more than 20000 nM; at DR7 (DRB1*0701), 146 nM; against DRB1*0301, more than 20000 nM. Also, the IC50 against DRB1*1302 came to 26 nM; at DRB5*0101, 640 nM; against DRB1*1201, 12000 nM; against DR1 (DRB1*0101), 11 nM; at DRB1*1101 it was 953 nM; against DRB1*0901, 273 nM. Further, the IC50 came to 2900 nM on DRB1*1501 and 410 nM at DRB1*0802.
Regarding EDLRTLQQLFLSTLS [Peptide 1543.21], the IC50 is 34 nM on DR4w4 (DRB1*0401); 17 nM against DRB4*0101; 582 nM on DRB1*0405; more than 20000 nM on DRB3*0101; 390 nM at DR7 (DRB1*0701); 6770 nM at DRB1*0301. Besides, the IC50 at DRB1*1302 is 7.5 nM; at DRB5*0101, more than 20000 nM; at DRB1*1201 it was 958 nM; on DR1 (DRB1*0101) it was 20 nM; on DRB1*1101 it was 279 nM; at DRB1*0901 it was 15500 nM. In addition, the figures for the IC50 against DRB1*1501 and against DRB1*0802 were 141 nM and 12800 nM, respectively.
Turning to RHLDKKQRFHNIRGR [Peptide 1543.26], the IC50 at DR4w4 (DRB1*0401) was 6200 nM; on DRB4*0101 it was more than 20000 nM; against DRB1*0405 it was 1550 nM; at DRB3*0101, more than 20000 nM; against DR7 (DRB1*0701) it was 591 nM; at DRB1*0301, 5210 nM. The IC50 against DRB1*1302 is more than 20000 nM; at DRB5*0101 it was 5760 nM; on DRB1*1201 it was more than 20000 nM; against DR1 (DRB1*0101), 556 nM; on DRB1*0901 it was more than 20000 nM; at DRB1*1501, more than 20000 nM. Also, half-maximal inhibition at DRB1*0802 (IC50) was put at 7720 nM.
